From US20220259249A1, “INHIBITORS OF ANTIBIOTIC RESISTANCE MEDIATED BY ARNT” (priority 2019, published 2022) come the findings set out here.

Like-named read-outs stand apart in the source and are kept apart here.

Data set [1] deals with P. aeruginosa PA14 col^R 5 (colistin-resistant strain). Kind of data set: microbe, parasite or virus in culture. It counts as cell-based. The conditions noted are these: for antibacterial activity per se: in the absence of colistin; for IC90: read-out: IC90, synergy with colistin (8 μg/ml), minimum concentration causing at least 90% growth inhibition. Here is the method:
The compounds identified by in silico screening were tested for their antibacterial activity (in the absence of colistin) and for their synergistic or adjuvant activity with colistin against a colistin-resistant strain of P. aeruginosa grown in the absence or presence of a sub-inhibitory concentration of colistin (8 μg/ml).
This strain over-expresses the am genes responsible for the modification of lipopolysaccharide by the addition of L-amino-arabinose.
The strain was grown in Mueller-Hinton (MH) medium for 8 hours, and inoculated at a cell density of ˜10^6/ml in MH medium supplemented or not with colistin at a concentration of 16 μg/ml. […] The microtitration plates were incubated at 37° C. without stirring for 24 hours. Bacterial growth was assessed by measuring absorbance at 600 nm (A600) in a microplate reader (Victor 2^V, Perkin-Elmer). […] For each compound three independent experiments were conducted, and the averages of the values obtained in the three experiments are considered to determine the values of IC50 e IC90.

The test system of data set [2] is 16HBE cells (human epithelial cells of bronchial origin). Kind of data set: Cell viability test (MTT reduction).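 Further: formazan absorbance at 570 nm after MTT reduction, corrected for cell-free blank wells, reported relative to untreated cells, from duplicate wells over three independent repeats.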
Description: The cytotoxic potential of the compounds was evaluated on cell cultures in vitro. […] The results are reported in the table as viability (%) compared to untreated cells (Table 4).
To evaluate the cytotoxic potential of the compounds under examination, the MTT (3-(4,5-dimethylthiazol-2-yl)-2,5-diphenyltetrazolium) reduction test, commonly used to monitor cell viability was used following the exposure to potentially cytotoxic agents. The essay is based on the reduction of MTT to formazan, a compound that assumes a blue colour which can be evaluated by spectrophotometric reading at a wavelength of 570 nm. For the essay we used the 16HBE cell line. […] Each test was performed in duplicate and three independent replicas were made.
Cell viability was calculated as follows:
COD570=OD570 of sample−OD570 of wells without cells (white)
Viability=100−reduction (%)
where: NT indicates the samples of cells non-threated with the compounds; T the samples of cells treated with the compounds at the different concentrations.
The mean cell viability values were calculated using the Excel mean and standard deviation functions.
Setting [3] is: Pseudomonas aeruginosa, PA14, 24 h, read-out: IC50 without colistin.
The mark [4] stands for this setting: read-out: IC50, synergy with colistin (8 μg/ml), PA14 ColR5, colistin 8 μg/ml (sub-inhibitory), minimum concentration causing at least 50% growth inhibition, 24 h.
Setting [5] is: PA14 ColR5, colistin 8 μg/ml (sub-inhibitory), 24 h.
[6] abbreviates: 16HBE, 1.95 μM, 18 hours, MTT, vs untreated cells.
The mark [7] stands for this setting: 16HBE, 3.91 μM, 18 hours, MTT, vs untreated cells.
Setting [8] is: 16HBE, 7.81 μM, 18 hours, MTT, vs untreated cells.
Where [9] appears, read: 16HBE, 15.63 μM, 18 hours, MTT, vs untreated cells.
Where [10] appears, read: 16HBE, 125 μM, 18 hours, MTT, vs untreated cells.
The mark [11] stands for this setting: 16HBE, 250 μM, 18 hours, MTT, vs untreated cells.
Where [12] appears, read: 16HBE, 62.5 μM, 18 hours, MTT, vs untreated cells.

`C[C@]12C=C[C@@]3(CCC4[C@@](C)(COC(=O)CC(=O)O)CCC[C@@]4(C)C3CC1)C2` (stereo partly drawn) [FDM, ent-beyer-15-en-18-O-malonic acid]: the IC50 in data set [1] (setting [3]) was above 250 µM; in data set [1] (setting [4]) it was 62.5 µM. Further, the “inhibition of bacterial growth in the presence of colistin” value in data set [1] (colistin 8 μg/ml) was “able to inhibit bacterial growth in the presence of colistin”. For the same compound, in data set [1], the “antibacterial activity per se” value is “none of the compounds showed antibacterial activity per se”. The IC90 in data set [1] (setting [5]) was above 250 µM. The “Average percentage of cell viability (±standard deviation)” value was found to be 106.63 ± 2.87% in data set [2]; 102.92 ± 7.31% in data set [2] (setting [6]); 96.70 ± 1.60% in data set [2] (setting [7]); 97.93 ± 2.17% in data set [2] (setting [8]); 107.42 ± 0.01% in data set [2] (setting [9]); 113.17 ± 8.95% in data set [2] (16HBE, 31.25 μM, 18 hours, MTT, vs untreated cells). In addition, the “Average percentage of cell viability (±standard deviation)” value in data set [2] (setting [10]) amounted to 100.48 ± 12.78%; in data set [2] (setting [11]), 85.01 ± 2.40%.
Take `O=C1c2c(O)cccc2[C@H]([C@@H]2O[C@H](CO)[C@@H](O)[C@H](O)[C@H]2O)c2cc(CO)cc(O)c21` [BBN36, (10S)-1,8-dihydroxy-3-(hydroxymethyl)-10-[(2S, 3R, 4R, 5S, 6R)-3,4,5-trihydroxy-6-(hydroxymethyl)oxan-2-yl]-10 H-anthracen-9-one]: the IC50 in data set [1] (setting [3]) and in data set [1] (setting [4]) was above 250 µM each time. Moreover, the IC90 in data set [1] (setting [5]) is above 250 µM.
On to `C[C@@]12CCC3[C@@](CCC4[C@](C)(COC(=O)C(=O)O)CCC[C@]43C)(CC1)C2` (stereo partly drawn) [SR8, ent-beyeran-19-O-oxalic acid], for which, in data set [1] (setting [3]), the IC50 was above 250 µM. Further, the IC90 in data set [1] (setting [5]) was above 250 µM. Moreover, the “Average percentage of cell viability (±standard deviation)” value is 90.55 ± 4.17% in data set [2]; 100.17 ± 14.21% in data set [2] (setting [6]); 97.84 ± 10.19% in data set [2] (setting [7]); 90.33 ± 4.26% in data set [2] (setting [8]); 92.64 ± 6.57% in data set [2] (setting [9]); 85.68 ± 6.99% in data set [2] (setting [12]). Besides, the figures for the “Average percentage of cell viability (±standard deviation)” value in data set [2] (setting [10]) and in data set [2] (setting [11]) were 78.02 ± 7.46% and 80.16 ± 2.01%, respectively.
Turning to `C=CC(C)(C)c1c2c(c3oc4c(O)c(O)ccc4c(=O)c3c1O)C(C)(C)C(C)O2` (centres unmarked) [BBN120, rheediaxanthone B], the IC50 in data set [1] (setting [3]) is above 250 µM. In addition, the IC90 in data set [1] (setting [5]) is above 250 µM.
For `CC1(C)C=Cc2c(cc(O)c3c(=O)c4cc5c(c(O)c4oc23)OC(C)(C)C=C5)O1` [BBN119, 11,22-dihydroxy-7,7,19,19-tetramethyl-2,8,20-trioxapentacyclo [12.8.0.03,120,04,90,016,21]docosa-1(14), 3(12), 4(9), 5, 10, 15, 17, 21-octaen-13-one], the IC50 in data set [1] (setting [3]) and in data set [1] (setting [4]) was above 250 µM each time. Further, the IC90 in data set [1] (setting [5]) is above 250 µM.
For `CC(C)=CCc1c(O)c(C(=O)c2ccccc2)c(O)c2c1OC(C)(C)C=C2` [BBN148, [5,7-dihydroxy-2,2-dimethyl-8-(3-methylbut-2-enyl)cromen-6-yl]-phenylmethanone], the IC50 in data set [1] (setting [3]) and in data set [1] (setting [4]) was above 250 µM each time. In data set [1] (setting [5]), the IC90 was above 250 µM.
Regarding `COc1cc2ccc(=O)oc2cc1OC/C=C(\C)CCC=C(C)C` [BBN146, 6-methoxy-7-O-geranyl-coumarin], the IC50 in data set [1] (setting [3]) and in data set [1] (setting [4]) was above 250 µM each time. For the same compound, the IC90 in data set [1] (setting [5]) is above 250 µM.
Take `C[C@]12C=C[C@@]3(CCC4[C@@](C)(CO)CCC[C@@]4(C)C3CC1)C2` (stereo partly drawn) [FDA, ent-beyer-15-en-18-ol]: the IC50 in data set [1] (setting [3]) and in data set [1] (setting [4]) was above 250 µM throughout. In addition, the “antibacterial activity per se” value in data set [1] is recorded as “none of the compounds showed antibacterial activity per se”. The IC90 in data set [1] (setting [5]) is above 250 µM.
Consider `CC(C)=CCC/C(C)=C/COc1ccc(C(=O)/C=C/c2ccccc2)cc1` [BBN154, 4′-O-geranil-calcone], for which the IC50 in data set [1] (setting [3]) and in data set [1] (setting [4]) was above 250 µM throughout. The IC90 in data set [1] (setting [5]) is above 250 µM.
Regarding `C[C@@]12CCC3[C@@](CCC4[C@](C)(CO)CCC[C@]43C)(CC1)C2` (stereo partly drawn) [SR9, ent-beyeran-19-ol], the IC50 in data set [1] (setting [3]) and in data set [1] (setting [4]) was above 250 µM throughout. The IC90 in data set [1] (setting [5]) is above 250 µM.
Take `Cc1nccc2c1[nH]c1ccccc12` [BBN135, 1-methyl-9H-pyrido[3,4-b]indole]: the IC50 in data set [1] (setting [3]) and in data set [1] (setting [4]) was above 250 µM each time. The IC90 in data set [1] (setting [5]) is above 250 µM.
For the compound `C[C@@]12CCC3[C@@](CCC4[C@@]3(C)CCC[C@@]4(C)C(=O)O)(CC1)C2` (stereo partly drawn) [SR10, ent-beyeran-19-oic acid], the IC50 in data set [1] (setting [3]) is above 250 µM. Besides, in data set [1] (setting [5]), the IC90 was above 250 µM. The “Average percentage of cell viability (±standard deviation)” value in data set [2] is on record as 99.52 ± 9.52%; in data set [2] (setting [6]) it was 105.21 ± 6.73%; in data set [2] (setting [7]), 104.95 ± 6.36%; in data set [2] (setting [8]), 101.00 ± 7.12%; in data set [2] (setting [9]) it was 97.98 ± 1.66%; in data set [2] (setting [12]), 99.80 ± 4.30%. In addition, the “Average percentage of cell viability (±standard deviation)” value turned out to be 92.07 ± 5.47% in data set [2] (setting [10]) and 1.47 ± 2.29% in data set [2] (setting [11]). The “reduction in cell viability” value in data set [2] (16HBE, highest concentration (250 μM), 18 hours) was “total reduction of cell viability”.
With `O=C(/C=C/c1ccc(O)c(O)c1)O[C@@H]1C[C@](O)(C(=O)O)C[C@@H](O)[C@H]1O` [BBN53, (1S, 3R, 4R, 5R)-3-[(E)-3-(3,4-dihydroxyphenyl)prop-2-enoyl]oxy-1,4,5-trihydroxycyclohexane-1-carboxylic acid], the IC50 in data set [1] (setting [3]) and in data set [1] (setting [4]) was above 250 µM each time. Further, the IC90 in data set [1] (setting [5]) is above 250 µM.
In the case of `COC(=O)[C@]1(C)CCC[C@@]2(C)C3CC[C@@]4(C)C[C@]3(CCC21)CC4=O` (single isomer, unassigned; ent-16) [SR7, methyl ester of ent-16-oxo-beyeran-19-oic acid], the IC50 in data set [1] (setting [3]) and in data set [1] (setting [4]) was above 250 µM each time. For the same compound, the IC90 in data set [1] (setting [5]) is above 250 µM.
Consider `O=C(CCc1ccc(O)cc1)c1c(O)cc(O)cc1O` [BBN101, 3-(4-hydroxyphenyl)-1-(2,4,6-trihydroxyphenyl)propan-1-one], for which the IC50 in data set [1] (setting [3]) and in data set [1] (setting [4]) was above 250 µM throughout. Also, the IC90 in data set [1] (setting [5]) is above 250 µM.
`CC(C)=CCc1c(O)cc2c(c1O)C(=O)[C@H](O)[C@@H](c1ccc(O)cc1)O2` [BBN147, 6-prenyl-aromadendrine]: the IC50 in data set [1] (setting [3]) was above 250 µM. The IC90 in data set [1] (setting [5]) is above 250 µM.
As to `C=C1C[C@@]23CCC4[C@@](C)(CCC[C@@]4(C)C(=O)O)C2CC[C@]1(O)C3` (some centres unmarked) [SR5, 13-hydroxy-kaur-16-en-19-oic acid], the IC50 in data set [1] (setting [3]) and in data set [1] (setting [4]) was above 250 µM each time. The IC90 in data set [1] (setting [5]) was above 250 µM.
Regarding `COC(=O)C1=CO[C@@H](O[C@@H]2O[C@H](CO)[C@@H](O)[C@H](O)[C@H]2O)[C@@H]2[C@@H](C)[C@@H](O)C[C@H]12` [BBN139, methyl (1S, 4aS, 6S, 7R, 7aS)-6-hydroxy-7-methyl-1-[(2 S, 3 R, 4 S, 5S, 6R)-3,4,5-trihydroxy-6-(hydroxymethyl)oxan-2-yl]oxy-1,4a, 5,6,7,7a-haxidrocrociclopenta [c] piran-4-carboxylate], the IC50 in data set [1] (setting [3]) and in data set [1] (setting [4]) was above 250 µM each time. Besides, in data set [1] (setting [5]), the IC90 was above 250 µM.
With `COc1cc(O)c(O)c(CC=C(C)C)c1-c1coc2cc(O)cc(O)c2c1=O` [BBN118, 3-[3,4-dihydroxy-6-methoxy-2-(3-methylbut-2-enyl)phenyl]-5,7-dihydroxycromen-4-one], in data set [1] (setting [3]), the IC50 was above 250 µM. Besides, in data set [1] (setting [5]), the IC90 is above 250 µM.
Regarding `O=C(O)c1cc(O)c2c(c1)C(=O)c1cccc(O)c1C2=O` [BBN152, 4,5-dihydroxy-9,10-dioxoanthracene-2-carboxylic acid], the IC50 in data set [1] (setting [3]) and in data set [1] (setting [4]) was above 250 µM throughout. Also, the IC90 in data set [1] (setting [5]) was above 250 µM.
